Reference: patent US20260042764A1, “COMPOSITIONS AND METHODS FOR INHIBITION OF KRAS” (TheRas, Inc., priority 2022, published 2026)

Assays:
[1] = target: T1, Avi-KRAS G12D (2-169) GTP/RAF1 RBD-3xFLAG (51-131) (Homo sapiens, UniProt P01116, G12D); test: Raf1-KRAS G12D-GTP disruption HTRF assay (Biological Example 3); type: binding; settings: KRAS G12D, GTP-loaded
T1 construct: Avi-KRAS G12D (2-169)
Method: (§1) Biological Example 3: Disrupting RAS-Effector Binding HTRF Assay
(§2) A protein:protein interaction (PPI) Homogeneous Time Resolved Fluorescence (HTRF) assay was used to determine the effectiveness of compounds in disrupting KRAS protein and effector (RAF1) binding.
(§3) The HTRF assay used the following reagents and proteins: (i) 50 nM Avi-KRAS G12D (2-169) GTP/RAF1 RBD-3xFLAG (51-131): (ii) 50 nM Avi-KRAS G12C (2-169) GTP/RAF1 RBD-3xFLAG (51-131): (iii) 50 nM Avi-KRAS G12V (2-169) GTP/RAF1 RBD-3xFLAG (51-131); (iv) 50 nM Avi-KRAS WT (2-169) GTP/RAF1 RBD-3xFLAG (51-131); and (v) 75 nM 3xFLAG-RAF1 RBD (51-131)-Avi. The assay buffer included: 50 mM Tris pH 7.5 (Invitrogen, 15567-027), 100 mM NaCl (Sigma, S5150-IL), 5 mM MgCl2 (Sigma, 63069), 0.1% BSA (Sigma, A7030), 0.01% Tween 20 (Sigma, P7949), 10% DMSO (Cell Signaling, 12611). The bead buffer included: 50 mM Tris pH 7.5 (Invitrogen, 15567-027), 0.01% Tween 20 (Sigma, P7949). An assay volume of 20 μL was used in a 384 well plate-low volume format. Compound titration: 30-0.005 μM, 3x dilution series.
(§4) The HTRF assay employed the following protocol:
(§5) Compounds were dispensed in assay plate (384-well, Grenier Bio-One #784075) using Echo (model 555) with dose response settings: 200 nL final volume, titration from 30 μM as a 10-point dilution series. Proteins and HTRF reagents were mixed and dispensed onto plates, 20 μL per well, and then incubated for 1 h at room temperature, with 700 rpm shaking.
(§6) Plates were analyzed on an Envision plate reader using the following setting: Excitation 320 nm, Bandwidth 75 nm; Emission 615 nm, Bandwidth 85 nm; Gain 100%; Flashes 100; Lag 60 μs. Data was reported as percentage of activity, with DMSO as 100%. Data was plotted and analyzed using Prism 8.
(§7) The biochemical Raf1-KRAS G12D/G12V/G12C/WT-GTP disruption assay IC50 of selected compounds described herein are shown in Table 12.

GP2d cells (KRAS G12D) = test: Cell-based pERK HTRF assay in GP2d cell (Biological Example 2); settings: GP2d (KRAS G12D) cells
Procedure, shortened: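 60 min compound, 0.25% DMSO, 9-pt half-log curve from 1 μM or 100 nM; DMEM/10% FBS.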

SW620 cells (KRAS G12V) = test: Cell-based pERK HTRF assay in SW620 cell (Biological Example 4)
Procedure, shortened: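 This assay measures inhibition of ERK phosphorylation downstream of KRAS G12V in intact SW620 cells. Compounds are applied for 4 h over nine half-log concentrations starting at 1 μM, and pERK is quantified by HTRF.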

[2] = target: T2, Avi-KRAS WT (2-169) GTP/RAF1 RBD-3xFLAG (51-131) (Homo sapiens, UniProt P01116); test: Raf1-KRAS WT-GTP disruption HTRF assay (Biological Example 3); type: binding; settings: KRAS WT, GTP-loaded
T2 construct: Avi-KRAS WT (2-169)
Method: as §1, §2, §3, §4, §5, §6, §7

[3] = target: T3, Avi-KRAS G12C (2-169) GTP/RAF1 RBD-3xFLAG (51-131) (Homo sapiens, UniProt P01116, G12C); test: Raf1-KRAS G12C-GTP disruption HTRF assay (Biological Example 3); type: binding; settings: KRAS G12C, GTP-loaded
T3 construct: Avi-KRAS G12C (2-169)
Method: as §1, §2, §3, §4, §5, §6, §7

[4] = target: T4, Avi-KRAS G12V (2-169) GTP/RAF1 RBD-3xFLAG (51-131) (Homo sapiens, UniProt P01116, G12V); test: Raf1-KRAS G12V-GTP disruption HTRF assay (Biological Example 3); type: binding; settings: KRAS G12V, GTP-loaded
T4 construct: Avi-KRAS G12V (2-169)
Method: as §1, §2, §3, §4, §5, §6, §7

[5] = Homo sapiens, SW-620, SW620 (KRAS G12V) cells

T4 sequence (P01116 2-169 isoform P01116-2 G12V): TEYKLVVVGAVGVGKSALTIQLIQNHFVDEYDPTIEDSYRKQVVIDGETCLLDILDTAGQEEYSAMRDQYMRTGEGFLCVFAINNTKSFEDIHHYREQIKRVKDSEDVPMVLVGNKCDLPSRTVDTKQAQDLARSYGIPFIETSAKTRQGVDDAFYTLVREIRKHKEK
T2 sequence (P01116 2-169 isoform P01116-2): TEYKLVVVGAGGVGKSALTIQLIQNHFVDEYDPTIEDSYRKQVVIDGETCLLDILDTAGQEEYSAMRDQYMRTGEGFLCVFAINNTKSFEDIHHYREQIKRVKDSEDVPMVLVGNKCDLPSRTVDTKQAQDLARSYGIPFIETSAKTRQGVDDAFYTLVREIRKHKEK
T1 sequence (P01116 2-169 isoform P01116-2 G12D): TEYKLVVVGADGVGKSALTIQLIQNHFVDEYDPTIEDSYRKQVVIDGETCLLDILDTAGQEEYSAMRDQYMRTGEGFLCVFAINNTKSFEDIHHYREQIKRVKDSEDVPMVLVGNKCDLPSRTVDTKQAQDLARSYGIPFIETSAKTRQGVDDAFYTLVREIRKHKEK
T3 sequence (P01116 2-169 isoform P01116-2 G12C): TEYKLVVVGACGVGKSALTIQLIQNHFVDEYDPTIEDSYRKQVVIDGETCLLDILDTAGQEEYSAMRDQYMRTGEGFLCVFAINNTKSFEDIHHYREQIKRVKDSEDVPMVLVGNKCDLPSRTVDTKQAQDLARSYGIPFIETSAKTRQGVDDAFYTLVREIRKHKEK

SMILES | IC50 [1] | IC50 (GP2d cells (KRAS G12D); GP2d) | IC50 (SW620 cells (KRAS G12V); [5]) | IC50 [2] | IC50 [3] | IC50 [4] | IC50 (GP2d cells (KRAS G12D)) | IC50 (SW620 cells (KRAS G12V); SW620 (KRAS G12V) cells)
CCN(c1nc(OC[C@@]23CCCN2C[C@H](F)C3)nc2c(F)c(-c3ccc(F)c4sc(N)c(C#N)c34)c(C(F)(F)F)cc12)[C@H]1C[C@@H](C)N(C(=O)C2CC2(F)F)C1 (stereo partly shown) [Compound 877] | 100 to 1000 nM | < 100 nM | < 100 nM | 1000 to 10000 nM | 1000 to 10000 nM | 1000 to 10000 nM | – | –
CCN(c1nc(OC[C@@]23CCCN2C[C@H](F)C3)nc2c(F)c(-c3ccc(F)c4sc(N)c(C#N)c34)c(C(F)(F)F)cc12)[C@H]1C[C@H](C)N(C(=O)c2coc(C)n2)C1 (atropisomer, axis not shown) [Compound 915] | ≤ 100 nM | < 100 nM | < 100 nM | 100 to 1000 nM | 100 to 1000 nM | ≤ 100 nM | – | –
CCN(c1nc(OC[C@@]23CCCN2C[C@H](F)C3)nc2c(F)c(-c3ccc(F)c4sc(N)c(C#N)c34)c(C(F)(F)F)cc12)[C@H]1CCN(C(=O)O[C@H]2CO[C@H]3OCC[C@H]32)C1 (atropisomer, axis not shown) [Compound 816] | 100 to 1000 nM | < 100 nM | < 100 nM | 100 to 1000 nM | ≤ 100 nM | 100 to 1000 nM | – | –
CCN(c1nc(OC[C@@]23CCCN2C[C@H](F)C3)nc2c(F)c(-c3ccc(F)c4sc(N)c(C#N)c34)c(C(F)(F)F)cc12)[C@H]1C[C@H](C(=O)N(C)C)C1 (atropisomer, axis not shown) [Compound 950] | 100 to 1000 nM | – | – | 100 to 1000 nM | 100 to 1000 nM | 100 to 1000 nM | – | –
CCN(c1nc(OC[C@@]23CCCN2C[C@H](F)C3)nc2c(F)c(-c3ccc(F)c4sc(N)c(C#N)c34)c(C(F)(F)F)cc12)[C@H]1CCN(C(C)=O)[C@@H]1COC (atropisomer, axis not shown) [Compound 924] | 100 to 1000 nM | < 100 nM | < 100 nM | 100 to 1000 nM | 100 to 1000 nM | 100 to 1000 nM | – | –
CCN(c1nc(OCC23CCCN2CC(F)C3)nc2c(F)c(-c3ccc(F)c4sc(N)c(C#N)c34)c(C(F)(F)F)cc12)C1CCN(C(=O)c2cnc(C#N)s2)C1 (stereo not shown) [Compound 960] | 100 to 1000 nM | – | – | 1000 to 10000 nM | 100 to 1000 nM | 100 to 1000 nM | < 100 nM | < 100 nM
CCN(c1nc(OC[C@@]23CCCN2C[C@H](F)C3)nc2c(F)c(-c3ccc(F)c4sc(N)c(C#N)c34)c(C(F)(F)F)cc12)[C@H]1CCN(C(=O)OCC(F)(F)F)C1 (atropisomer, axis not shown) [Compound 849] | 100 to 1000 nM | < 100 nM | < 100 nM | 100 to 1000 nM | 100 to 1000 nM | 100 to 1000 nM | – | –
CN(c1nc(OC[C@@]23CCCN2C[C@H](F)C3)nc2c(F)c(-c3ccc(F)c4sc(N)c(C#N)c34)c(C(F)(F)F)cc12)[C@H]1CCCc2ccncc21 (atropisomer, axis not shown) [Compound 971] | > 10000 nM | < 100 nM | < 100 nM | > 10000 nM | > 10000 nM | > 10000 nM | – | –
CCN(c1nc(OC[C@@]23CCCN2C[C@H](F)C3)nc2c(F)c(-c3ccc(F)c4sc(N)c(C#N)c34)c(C(F)(F)F)cc12)[C@H]1C[C@H](C)N(C(=O)[C@@H]2C[C@H]2F)C1 (atropisomer, axis not shown; (aS)) [Compound 893, 2-amino-4-((S)-4-(ethyl((3S,5S)-1-((1S,2R)-2-fluorocyclopropane-1-carbonyl)-5-methylpyrrolidin-3-yl)amino)-8-fluoro-2-(((2R,7aS)-2-fluorotetrahydro-1H-pyrrolizin-7a (5H)-yl)methoxy)-6-(trifluoromethyl)quinazolin-7-yl)-7-fluorobenzo[b]thiophene-3-carbonitrile] | 100 to 1000 nM | < 100 nM | < 100 nM | 100 to 1000 nM | 100 to 1000 nM | ≤ 100 nM | – | –
COC(=O)N1CC[C@H](N(CCF)c2nc(OC[C@@]34CCCN3C[C@H](F)C4)nc3c(F)c(-c4ccc(F)c5sc(N)c(C#N)c45)c(C(F)(F)F)cc23)C1 (atropisomer, axis not shown) [Compound 829] | 100 to 1000 nM | < 100 nM | < 100 nM | 1000 to 10000 nM | 100 to 1000 nM | 100 to 1000 nM | – | –

Continued, values first:

IC50 [1] | IC50 (GP2d cells (KRAS G12D); GP2d) | IC50 (SW620 cells (KRAS G12V); [5]) | IC50 [2] | IC50 [3] | IC50 [4] | IC50 (GP2d cells (KRAS G12D)) | IC50 (SW620 cells (KRAS G12V); SW620 (KRAS G12V) cells) | SMILES
100 to 1000 nM | < 100 nM | < 100 nM | 100 to 1000 nM | 100 to 1000 nM | 100 to 1000 nM | – | – | CCN(c1nc(OC[C@@]23CCCN2C[C@H](F)C3)nc2c(F)c(-c3ccc(F)c4sc(N)c(C#N)c34)c(C(F)(F)F)cc12)[C@H]1C[C@H]2CN(C3COC3)C(=O)N2C1 (atropisomer, axis not shown) [Compound 958]
100 to 1000 nM | < 100 nM | < 100 nM | 1000 to 10000 nM | 100 to 1000 nM | 100 to 1000 nM | – | – | CN(Cc1cnccn1)c1nc(OC[C@@]23CCCN2C[C@H](F)C3)nc2c(F)c(-c3ccc(F)c4sc(N)c(C#N)c34)c(C(F)(F)F)cc12 (atropisomer, axis not shown) [Compound 872]
> 10000 nM | < 100 nM | 100 to 1000 nM | > 10000 nM | > 10000 nM | > 10000 nM | – | – | N#Cc1c(N)sc2c(F)ccc(-c3c(C(F)(F)F)cc4c(N5CCc6ccncc6C5)nc(OC[C@@]56CCCN5C[C@H](F)C6)nc4c3F)c12 [Compound 942]
100 to 1000 nM | < 100 nM | < 100 nM | 100 to 1000 nM | 100 to 1000 nM | 100 to 1000 nM | – | – | CCN(c1nc(OC[C@@]23CCCN2C[C@H](F)C3)nc2c(F)c(-c3ccc(F)c4sc(N)c(C#N)c34)c(C(F)(F)F)cc12)[C@H]1CCN(C(=O)C(CF)CF)C1 (atropisomer, axis not shown) [Compound 857]
100 to 1000 nM | < 100 nM | < 100 nM | 1000 to 10000 nM | 1000 to 10000 nM | 1000 to 10000 nM | – | – | CN(Cc1ccnnc1)c1nc(OC[C@@]23CCCN2C[C@H](F)C3)nc2c(F)c(-c3ccc(F)c4sc(N)c(C#N)c34)c(C(F)(F)F)cc12 (atropisomer, axis not shown) [Compound 896]
1000 to 10000 nM | < 100 nM | 100 to 1000 nM | 1000 to 10000 nM | 1000 to 10000 nM | 1000 to 10000 nM | – | – | N#Cc1c(N)sc2c(F)ccc(-c3c(C(F)(F)F)cc4c(N5Cc6ccncc6C5)nc(OC[C@@]56CCCN5C[C@H](F)C6)nc4c3F)c12 [Compound 946]
100 to 1000 nM | < 100 nM | < 100 nM | 100 to 1000 nM | 100 to 1000 nM | 100 to 1000 nM | – | – | CN(c1nc(OC[C@@]23CCCN2C[C@H](F)C3)nc2c(F)c(-c3ccc(F)c4sc(N)c(C#N)c34)c(C(F)(F)F)cc12)[C@H]1CC(=O)N2CCC[C@@H]12 (atropisomer, axis not shown) [Compound 916]
